Results as given in ChEMBL document CHEMBL1671792, “Conformationally constrained farnesoid X receptor (FXR) agonists: heteroaryl replacements of the naphthalene” (Bioorg Med Chem Lett, 2011).

What was measured:
Mus musculus [1] = assay: Antidiabetic activity in diet-induced obese mouse assessed as change in body weight at 100 mg/kg, po for 4 weeks measured after 4 weeks (reference value: 29.1+/-0.8 g); format: functional
[2] = Half life in iv dosed Beagle dog; format: ADME, organism-based, Canis lupus familiaris; conditions: in vivo
Bile acid receptor = biological target: T1, Bile acid receptor (Homo sapiens, UniProt Q96RI1); assay: Agonist activity at human FXR LBD iexpressed in monkey CV-1 cells assessed as transactivation of luciferase reporter gene expression; format: functional, cell-based
T1 sequence (Q96RI1 whole entry): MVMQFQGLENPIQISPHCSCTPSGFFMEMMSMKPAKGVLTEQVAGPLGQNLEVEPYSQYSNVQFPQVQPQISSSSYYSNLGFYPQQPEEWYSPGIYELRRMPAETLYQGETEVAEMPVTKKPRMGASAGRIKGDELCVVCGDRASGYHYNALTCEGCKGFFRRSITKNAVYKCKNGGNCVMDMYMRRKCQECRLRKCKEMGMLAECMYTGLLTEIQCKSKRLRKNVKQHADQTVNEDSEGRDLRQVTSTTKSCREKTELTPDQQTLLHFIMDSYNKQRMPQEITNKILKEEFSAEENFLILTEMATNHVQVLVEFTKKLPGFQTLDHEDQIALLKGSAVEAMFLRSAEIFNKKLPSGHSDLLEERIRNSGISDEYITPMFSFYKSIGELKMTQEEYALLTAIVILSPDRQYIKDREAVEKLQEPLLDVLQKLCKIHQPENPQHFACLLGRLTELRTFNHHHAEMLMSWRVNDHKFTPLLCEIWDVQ

Mus musculus [3] = assay: Antidiabetic activity in diet-induced obese mouse assessed as NEFA level at 30 mg/kg, po for 4 weeks (reference value: 0.46 +/-0.02 mEq/dL); format: functional
[4] = Permeability across MDCK cell membrane; format: ADME, cell-based, Canis lupus familiaris; conditions: dog
Cytochrome P450 1A2 = biological target: T2, Cytochrome P450 1A2 (Homo sapiens, UniProt P05177); assay: Inhibition of CYP1A2 in human liver microsome; format: microsomes
T2 sequence (P05177 whole entry): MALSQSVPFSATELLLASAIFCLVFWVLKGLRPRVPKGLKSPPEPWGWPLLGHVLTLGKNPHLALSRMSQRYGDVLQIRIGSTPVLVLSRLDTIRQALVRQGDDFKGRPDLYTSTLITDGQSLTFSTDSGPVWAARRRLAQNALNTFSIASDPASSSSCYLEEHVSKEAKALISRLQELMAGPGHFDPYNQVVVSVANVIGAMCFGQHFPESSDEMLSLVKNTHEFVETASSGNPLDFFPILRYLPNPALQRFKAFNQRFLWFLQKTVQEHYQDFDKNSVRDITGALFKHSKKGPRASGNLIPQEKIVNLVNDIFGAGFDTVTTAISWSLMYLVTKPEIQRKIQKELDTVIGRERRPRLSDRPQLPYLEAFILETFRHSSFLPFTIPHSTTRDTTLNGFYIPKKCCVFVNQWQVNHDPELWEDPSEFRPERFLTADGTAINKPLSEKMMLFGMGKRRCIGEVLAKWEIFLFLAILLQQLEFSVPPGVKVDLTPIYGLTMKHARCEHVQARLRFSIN

Mus musculus [5] = assay: Antidiabetic activity in diet-induced obese mouse assessed as change in body weight at 10 mg/kg, po for 4 weeks measured after 3 weeks (reference value: 30.3+/-0.8 g); format: functional
Mus musculus [6] = assay: Antidiabetic activity in diet-induced obese mouse assessed as change in body weight at 30 mg/kg, po for 4 weeks measured after 2 weeks (reference value: 29.6+/-0.9 g); format: functional
[7] = Volume of distribution at steady state in iv dosed cynomolgus monkey; format: ADME, organism-based, Macaca fascicularis; conditions: in vivo, read-out: Vdss
Mus musculus [8] = assay: Antidiabetic activity in diet-induced obese mouse assessed as glycerol level at 30 mg/kg, po for 4 weeks (reference value: 11.0 +/-1.3 mg/dL); format: functional
Mus musculus [9] = assay: Antidiabetic activity in diet-induced obese mouse assessed as change in body weight at 30 mg/kg, po for 4 weeks measured after 4 weeks (reference value: 29.6+/-0.9 g); format: functional
Mus musculus [10] = assay: Antidiabetic activity in diet-induced obese mouse assessed as total cholesterol level at 30 mg/kg, po for 4 weeks (reference value: 140.0 +/-2.8 mg/dL); format: functional
Cytochrome P450 2C19 = Cytochrome P450 2C19 (Homo sapiens, UniProt P33261); assay: Inhibition of CYP2C19 in human liver microsome; format: microsomes
Sequence of Cytochrome P450 2C19 (P33261 whole entry): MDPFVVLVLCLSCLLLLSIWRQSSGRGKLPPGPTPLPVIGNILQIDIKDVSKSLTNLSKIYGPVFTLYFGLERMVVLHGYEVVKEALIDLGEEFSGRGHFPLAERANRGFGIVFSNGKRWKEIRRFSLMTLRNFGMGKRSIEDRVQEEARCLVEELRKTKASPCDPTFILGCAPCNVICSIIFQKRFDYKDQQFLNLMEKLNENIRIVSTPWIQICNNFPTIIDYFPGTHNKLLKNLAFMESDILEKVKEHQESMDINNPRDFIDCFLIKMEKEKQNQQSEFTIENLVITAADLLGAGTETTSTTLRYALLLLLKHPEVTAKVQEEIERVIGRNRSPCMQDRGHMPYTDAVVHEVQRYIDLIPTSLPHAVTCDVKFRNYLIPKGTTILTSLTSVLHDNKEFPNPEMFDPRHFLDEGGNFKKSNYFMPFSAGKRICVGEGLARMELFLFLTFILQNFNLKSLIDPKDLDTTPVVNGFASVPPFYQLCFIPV

Mus musculus [11] = assay: Antidiabetic activity in diet-induced obese mouse assessed as serum insulin level at 100 mg/kg, po for 4 weeks (reference value: […]); format: functional
Mus musculus [12] = assay: Antidiabetic activity in diet-induced obese mouse assessed as NEFA level at 10 mg/kg, po for 4 weeks (reference value: 0.46 +/-0.02 mEq/dL); format: functional
[13] = Half life in iv dosed mouse; format: ADME, organism-based; conditions: in vivo
Cytochrome P450 2C9 = Cytochrome P450 2C9 (Homo sapiens, UniProt P11712); assay: Inhibition of CYP2C9 in human liver microsome; format: microsomes
Sequence of Cytochrome P450 2C9 (P11712 whole entry): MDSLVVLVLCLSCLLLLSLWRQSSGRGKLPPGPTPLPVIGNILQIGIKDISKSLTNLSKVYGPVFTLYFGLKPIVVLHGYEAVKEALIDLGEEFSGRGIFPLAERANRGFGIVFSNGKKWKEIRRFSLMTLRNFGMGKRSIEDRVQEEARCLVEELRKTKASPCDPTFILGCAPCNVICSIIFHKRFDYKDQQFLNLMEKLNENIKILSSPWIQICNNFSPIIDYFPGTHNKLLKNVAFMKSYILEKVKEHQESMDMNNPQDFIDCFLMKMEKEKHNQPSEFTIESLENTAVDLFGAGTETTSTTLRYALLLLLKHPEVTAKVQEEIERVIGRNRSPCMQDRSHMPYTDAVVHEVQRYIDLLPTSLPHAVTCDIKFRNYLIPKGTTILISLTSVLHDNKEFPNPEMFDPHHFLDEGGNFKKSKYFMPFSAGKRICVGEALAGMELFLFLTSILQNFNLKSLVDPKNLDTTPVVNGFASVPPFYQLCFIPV

Mus musculus [14] = assay: Antidiabetic activity in diet-induced obese mouse assessed as glycerol level at 100 mg/kg, po for 4 weeks (reference value: 11.0 +/-1.3 mg/dL); format: functional
Mus musculus [15] = assay: Antidiabetic activity in diet-induced obese mouse assessed as triglyceride level at 100 mg/kg, po for 4 weeks (reference value: 54.4 +/-1.5 mg/dL); format: functional
Mus musculus [16] = assay: Antidiabetic activity in diet-induced obese mouse assessed as triglyceride level at 30 mg/kg, po for 4 weeks (reference value: 54.4 +/-1.5 mg/dL); format: functional
[17] = Oral bioavailability in Beagle dog; format: ADME, organism-based, Canis lupus familiaris; conditions: in vivo
Homo sapiens [18] = species: Homo sapiens; assay: Selectivity ratio of EC50 for human FXR to EC50 for human LXRbeta
Mus musculus [19] = assay: Antidiabetic activity in diet-induced obese mouse assessed as serum glucose level at 10 mg/kg, po for 4 weeks (reference value: 316.5 +/-13.2 mg/dL); format: functional
Mus musculus [20] = assay: Antidiabetic activity in diet-induced obese mouse assessed as beta-hydroxybutyrate level at 10 mg/kg, po for 4 weeks (reference value: 1.7 +/-0.1 mg/dL); format: functional
[21] = Oral bioavailability in mouse; format: ADME, organism-based; conditions: in vivo
Homo sapiens [22] = species: Homo sapiens; assay: Selectivity ratio of EC50 for human FXR to EC50 for human PXR
[23] = Clearance in iv dosed mouse; format: ADME, organism-based; conditions: in vivo
Cynomolgus monkey = assay: Dose normalized AUC in orally dosed cynomolgus monkey; format: ADME, organism-based, Macaca fascicularis; conditions: in vivo, po
Homo sapiens [24] = species: Homo sapiens; assay: Selectivity ratio of EC50 for human FXR to EC50 for human RORalpha
Mus musculus [25] = assay: Antidiabetic activity in diet-induced obese mouse assessed as change in body weight at 100 mg/kg, po for 4 weeks measured after 1 week (reference value: 29.1+/-0.8 g); format: functional
Homo sapiens [26] = species: Homo sapiens; assay: Selectivity ratio of EC50 for human FXR to EC50 for human PPARgamma
Mus musculus [27] = assay: Antidiabetic activity in diet-induced obese mouse assessed as change in body weight at 30 mg/kg, po for 4 weeks measured after 3 weeks (reference value: 29.6+/-0.9 g); format: functional
[28] = Oral bioavailability in rat; format: ADME, organism-based; conditions: in vivo
[29] = Volume of distribution at steady state in iv dosed Beagle dog; format: ADME, organism-based, Canis lupus familiaris; conditions: in vivo, read-out: Vdss
Rattus norvegicus = assay: Dose normalized AUC in orally dosed rat; format: ADME, organism-based; conditions: in vivo, po

- half-life [2]: 1.83 h
- EC50 (Bile acid receptor): 0.05 µM
- Papp [4]: 18.3 ×10⁻⁶ cm/s
- IC50 (Cytochrome P450 1A2): 21 µM
- Vd [7]: 0.15 L/kg
- IC50 (Cytochrome P450 2C19): > 33 µM
- half-life [13]: 1.4 h
- IC50 (Cytochrome P450 2C9): 4.4 µM
- bioavailability [17]: 23%
- Ratio EC50 (Homo sapiens [18]): 100
- bioavailability [21]: 42%
- Ratio EC50 (Homo sapiens [22]): 100
- clearance [23]: 23 mL/min/kg
- AUC (Cynomolgus monkey): 850 ng·kg·h/mg/mL
- Ratio EC50 (Homo sapiens [24]): 100
- Ratio EC50 (Homo sapiens [26]): 100
- bioavailability [28]: 23%
- Vd [29]: 0.31 L/kg
- AUC (Rattus norvegicus): 130 ng·kg·h/mg/mL
Structure (SMILES): CC(C)c1onc(-c2c(Cl)cccc2Cl)c1COc1ccc(-c2ccc3nc(C(=O)O)ccc3c2)cc1
- Activity (Mus musculus [1]): 25.6 g
- Activity (Mus musculus [3]): 0.52 mEq/dL
- Activity (Mus musculus [5]): 29 g
- Activity (Mus musculus [6]): 27.8 g
- Activity (Mus musculus [8]): 10 mg/dL
- Activity (Mus musculus [9]): 27.3 g
- Activity (Mus musculus [10]): 99.6 mg/dL
- Activity (Mus musculus [11]): 0.34 ng/mL
- Activity (Mus musculus [12]): 0.53 mEq/dL
- Activity (Mus musculus [14]): 9.7 mg/dL
- Activity (Mus musculus [15]): 47.4 mg/dL
- Activity (Mus musculus [16]): 51.1 mg/dL
- Activity (Mus musculus [19]): 313 mg/dL
- Activity (Mus musculus [20]): 1.7 mg/dL
- Activity (Mus musculus [25]): 25.6 g
- Activity (Mus musculus [27]): 27.5 g
